Laboratory results published in patent publication US20160122313A1, “COMPOSITIONS AND METHODS FOR THE TREATMENT OF DIABETES” (priority 2014, published 2016).

Experiments:
Non-Diabetic Rats = test: Effect on serum glucose, body weight and HbA1c in nondiabetic rats, 4 weeks treatment; assay type: in vivo, rat; conditions: 30 mg/kg/day p.o.; for Glucose: serum glucose
Experimental: (§1) Effect of Nateglinide alone and Formula I (1-2) on Serum Glucose, Body Weights and HbAlc in Non-Diabetic and Diabetic Rats:
(§2) Methods: Animals were divided in to following groups, each group containing 6 animals and the treatment period for whole study was 4 weeks.
Group 1: Nondiabetic (ND) control, received CMC as vehicle (1 ml/kg/day, p.o, NDCON).
Group 2: Nondiabetic group treated with Nateglinide (NAT) (30 mg/kg/day, p.o, ND-NAT).
Group 3: Nondiabetic group treated with Formula I (1-2) (30 mg/kg/day, p.o)
(§3) Effect of Nateglinide (30 mg/kg/day, p.o) and Formula I (30 mg/kg/day, p.o) on Changes in Body Weight, Serum Glucose and HbAlc Level in Nondiabetic and Diabetic Rats.

Diabetic Rats = test: Effect on serum glucose, body weight and HbA1c in STZ/nicotinamide-induced type 2 diabetic rats, 4 weeks treatment; assay type: in vivo, rat; conditions: diabetic rats (STZ 65 mg/kg + NIC 150 mg/kg i.p.), 30 mg/kg/day; for Glucose: serum glucose
Experimental: as §1
Type 2 Diabetes was induced in overnight fasted rats by a single intraperitoneal injection of 65 mg/kg Streptozotocin (STZ), 15 min after the i.p administration of 150 mg/kg of Nicotinamide (NIC). After 7 days following STZ and NIC administration, blood was collected from tail vein and serum samples were analyzed for blood glucose. Animals showing fasting blood glucose higher than 300 mg/dl were considered as diabetic and were used for the study.
as §2
Group 4: Diabetic control, single injection of STZ (65 mg/kg, i.p) and NIC (150 mg/kg, i.p, DB-CON).
Group 5: Diabetic rats (DB) treated with NAT (30 mg/kg/day, DB-NAT).
Group 6: Diabetic rats treated with Formula I (1-2) (30 mg/kg/day, p.o)
as §3

CC(C)[C@H]1CCC[C@H](C(=O)N[C@H](Cc2ccccc2)OC(=O)OC(=O)CCCC[C@]2(C)CCSS2)C1 [FORMULA I]
(%, HbA1c) (Non-Diabetic Rats): 4.21 +/− 0.67%
Body weight (gm) (Non-Diabetic Rats): 265.1 +/− 9.3 gm
Glucose (Non-Diabetic Rats): 77.87 ± 9.67 mg/dL
(%, HbA1c) (Diabetic Rats): 4.01 +/− 0.72%
Glucose (Diabetic Rats): 99.1 ± 12.1 mg/dL

CC(C)[C@H]1CC[C@H](C(=O)N[C@H](Cc2ccccc2)C(=O)O)CC1 [NAT, Nateglinide]
(%, HbA1c) (Non-Diabetic Rats): 5.04 +/− 0.30%
Body weight (gm) (Non-Diabetic Rats): 224.0 +/− 7.23 gm
Glucose (Non-Diabetic Rats): 70.21 ± 5.6 mg/dL
(%, HbA1c) (Diabetic Rats): 6.78 +/− 0.98%
Body weight (gm) (Diabetic Rats): 219.8 +/− 50.28 gm
Glucose (Diabetic Rats): 170.7 ± 13.21 mg/dL
